Where two headings read alike, the source gives them in different places.
How the values were obtained:
[1] = tested on: HUVEC normal cells; assay: MTS cell viability assay, HUVEC normal cells; format: cell-based, human; conditions: Homo sapiens, HUVEC
Experimental: (§1) To determine the optimal working concentration, dose-effect curves were made for each compound in the range of concentrations between 6.25 and 400 μM.
(§2) LoVo (human colorectal adenocarcinoma) human cancer cell line and HUVEC normal cells were purchased from American Type Culture Collection (ATCC). The MCF-7 human breast adenocarcinoma cell line was provided from European Collection of Authenticated Cell Cultures (ECACC). HUVEC normal cells, isolated from the vascular endothelium of an umbilical cord, were used as a reference. Adherent cells were maintained in culture in Dulbecco’s modified Eagle medium/nutrient mixture F-12 (DMEM:F12) with 2 mM of L-glutamine, 10% fetal bovine serum, 100 units/mL of penicillin and 100 μg/mL of streptomycin, and incubated at 37 °C in a 5% CO2-humidified atmosphere. After 24 h, adherent cells were treated with different concentrations of the compounds for different periods of time. Cis-Pt and DOX, conventional oncology drugs used in cancer treatments, can be used as a positive control of the experiments. […] Then, cells were detached with a nonenzymatic solution of phosphate-buffered saline (PBS)/1 mM EDTA and washed twice in PBS.
(§3) The study utilized a colorimetric assay based on MTS (chemically known as 3-(4,5-dimethylthiazol-2-yl)-5-(3-carboxymethoxyphenyl)-2-(4-sulfophenyl)-2H-tetrazolium) and called CellTiter 96 Aqueous One Solution Cell proliferation Assay (Promega, Madison, WI, USA) in order to measure cell viability. The assay was performed in triplicate in 96-well microtiter plates with a flat bottom (Falcon). A number of 1 × 10^4 cells/well were cultured in 100 μL for 24 h, culture supernatants were discarded, and then cells were treated for 24 and 48 h with increasing concentrations of the tested compound. After the end of the incubation time, 20 μL of the reagent containing MTS and PES (phenazine ethosulfate) was added in each well. Plates were incubated for 4 h at 37 °C, with mild agitation every 15 min. The reduction in the tetrazolium compound to formazan was spectrophotometrically measured at λ = 492 nm using a Dynex plate reader (DYNEX Technologies MRS, Chantilly, VA, USA). The percentage of viability compared to untreated cells (considered 100% viable) was calculated with the formula:(1) Cell viability (%)=Absorbance treated cells−Absorbance culture medium/Absorbance untreated cells−Absorbance culture medium×100
(§4) The cell viability compared was calculated and data were expressed as a mean ± standard deviation (SD) of the experiments and obtained in triplicate (n = 3).

[2] = tested on: LoVo cells; assay: MTS cell viability assay, LoVo cells; format: cell-based, human; conditions: Homo sapiens, LoVo
Experimental: as §1, §2, §3, §4

[3] = tested on: MCF-7 cells; assay: MTS cell viability assay, MCF-7 cells; format: cell-based, human; conditions: Homo sapiens
Experimental: as §1, §2, §3, §4

[4] = tested on: HUVEC cells; assay: Apoptosis assay (Annexin V-FITC/PI flow cytometry), HUVEC; format: cell-based, human
Experimental: (§5) Two reference concentrations, 5 μM and 50 μM, and two distinct treatment durations, 24 and 48 h, were employed to assess the influence of the test compounds on apoptosis in both normal and tumor cells. […] HUVEC cells were exposed to both drugs.
(§6) The apoptosis assay was performed according to the manufacturer’s instructions using the Annexin V-FITC kit (BD Biosciences, San Jose, CA, USA). Cells untreated and treated with the experimental compound were suspended in a cold binding buffer. The percentages of apoptotic cells were determined by double staining with Annexin V-FITC/PI. In each tube was added 400 μL of Annexin V binding buffer and the 5000 cells/sample for 15 min in the dark at room temperature. The cells were analyzed using a FACSCantoII flow-cytometer (Becton Dickinson—BD, La Jolla, CA, USA). The analysis was performed using DIVA 6.2 software to discriminate viable cells (FITC-PI-) from necrotic cells (FITC + PI+), and early apoptosis (FITC + PI) from late apoptosis.

[5] = tested on: LoVo cells; assay: Apoptosis assay (Annexin V-FITC/PI flow cytometry), LoVo; format: cell-based, human
Experimental: as §5, §6

[6] = tested on: MCF-7 cells; assay: Apoptosis assay (Annexin V-FITC/PI flow cytometry), MCF-7; format: cell-based, human
Experimental: as §5, §6

[7] = Daphnia magna toxicity assay; format: in vivo; conditions: Daphnia magna, in vivo
Experimental: (§7) The Daphnia magna bioassay results are presented in Table 3 as the maximum average percentage of lethality (L%) registered for each compound and the median lethal concentration (LC50) if the values permitted its calculation.
(§8) Daphnia magna Straus is parthenogenetically maintained at ‘Carol Davila’ University’s Department of Pharmaceutical Botany and Cell Biology. The culture was consistently maintained at a temperature of 25 °C, with a 16-h light and 8-h dark photoperiod. To ensure consistency, young daphnids were carefully chosen based on their size and kept in an artificial medium for 24 h prior to the assessment. The bioassay involved 10 daphnids per replicate, using tissue culture plates with 12 wells from Greiner Bio-One. The experimental procedure followed the protocol described in previous studies.
(§9) Each determination was carried out in duplicate.

[8] = tested on: Daphnia magna; assay: Daphnia magna toxicity assay; format: in vivo; conditions: up to 200 µM
Experimental: as §7, §8, §9

[9] = tested on: MCF-7; parameters: method as in earlier work; conditions: ref 16 (Yang et al.); cited from earlier work
[10] = read-out: IC50 (48 h) HUVEC, 48 h exposure
[11] = 24 h exposure, read-out: IC50 (24 h) HUVEC
[12] = read-out: IC50 (48 h) LoVo, 48 h exposure
[13] = 24 h exposure, read-out: IC50 (24 h) LoVo
[14] = MCF7, read-out: IC50 (48 h) MCF-7, 48 h exposure
[15] = MCF7, 24 h exposure, read-out: IC50 (24 h) MCF-7

IC50 [2, 12] [µM]	IC50 [2, 13] [µM]	IC50 [3, 14] [µM]	IC50 [3, 15] [µM]	SMILES	IC50 [1, 10] [µM]	IC50 [1, 11] [µM]	Total Apoptosis (%) 24 h HUVEC ([4]; 5 μM) [%]	Total Apoptosis (%) 48 h HUVEC ([4]; 5 μM) [%]	Total Apoptosis (%) 24 h HUVEC ([4]; 50 μM) [%]	Total Apoptosis (%) 48 h HUVEC ([4]; 50 μM) [%]	Total Apoptosis (%) 24 h LoVo ([5]; 5 μM) [%]	Total Apoptosis (%) 48 h LoVo ([5]; 5 μM) [%]	Total Apoptosis (%) 24 h LoVo ([5]; 50 μM) [%]	Total Apoptosis (%) 48 h LoVo ([5]; 50 μM) [%]	Total Apoptosis (%) 24 h MCF-7 ([6]; 5 μM) [%]	Total Apoptosis (%) 48 h MCF-7 ([6]; 5 μM) [%]	Total Apoptosis (%) 24 h MCF-7 ([6]; 50 μM) [%]	LC50 at 48 h [7] [µM]	Maximum Average L% (lethality) ([8]; 24 h) [%]	Maximum Average L% (lethality) ([8]; 48 h) [%]	also measured
29.2	53.6	122	154	COc1ccc(OC)c(-c2nnc(N)s2)c1 [2d, 5-(2,5-Dimethoxyphenyl)-1,3,4-thiadiazol-2-amine]	94.8	> 400	28.4	14.4	19.8	16.8	13.5	19.3	12.0	17.9	14.6	37.6	11.8	50.7	40	95	Total Apoptosis (%) 48 h MCF-7 ([6]; 50 μM): 34.9%; LC50 at 24 h [7]: 241 µM
62.5	174	> 400	> 400	O=C(Nc1nnc(-c2ccccc2)s1)c1ccccc1 [3b, N-(5-Phenyl-1,3,4-thiadiazol-2-yl)benzamide]	> 400	> 400	17.8	15.3	17.0	15.9	12.5	22.2	12.6	20.9	19.2	43.7	16.4	228	5	45	viability at 200 µM ([2]; 24 h, 200 μM, read-out: viability of LoVo tumor cells): < 50%; Total Apoptosis (%) 48 h MCF-7 ([6]; 50 μM): 41.3%; IC50 [9]: 5.87 µM
> 400	> 400	> 400	> 400	CC(=O)Nc1nnc(-c2ccccc2)s1 [3a, N-(5-Phenyl-1,3,4-thiadiazol-2-yl)acetamide]	> 400	> 400	26.6	18.2	22.6	20.1	14.9	20.1	14.5	22.3	17.6	24.9	17.9	< 6.25	95	100	LC50 at 24 h [7]: < 6.25 µM
> 400	> 400	> 400	> 400	O=C(Nc1nnc(-c2ccccc2)s1)c1ccccc1CSc1ccccc1 [3c, 2-Phenylthiomethyl-N-(5-phenyl-1,3,4-thiadiazol-2-yl)benzamide]	> 400	> 400	15.5	13.5	16.9	14.7	14.8	27.6	11.2	24.5	16.4	39.3	14.3	188	10	55	Total Apoptosis (%) 48 h MCF-7 ([6]; 50 μM): 37.3%

Source: article PMC10743895, “Synthesis of 1,3,4-Thiadiazole Derivatives and Their Anticancer Evaluation” (International Journal of Molecular Sciences, 2023)
